Test [1] has as its target T1, Apoptotic protease-activating factor 1 (Homo sapiens, UniProt O14727).
T1 sequence (O14727 whole entry): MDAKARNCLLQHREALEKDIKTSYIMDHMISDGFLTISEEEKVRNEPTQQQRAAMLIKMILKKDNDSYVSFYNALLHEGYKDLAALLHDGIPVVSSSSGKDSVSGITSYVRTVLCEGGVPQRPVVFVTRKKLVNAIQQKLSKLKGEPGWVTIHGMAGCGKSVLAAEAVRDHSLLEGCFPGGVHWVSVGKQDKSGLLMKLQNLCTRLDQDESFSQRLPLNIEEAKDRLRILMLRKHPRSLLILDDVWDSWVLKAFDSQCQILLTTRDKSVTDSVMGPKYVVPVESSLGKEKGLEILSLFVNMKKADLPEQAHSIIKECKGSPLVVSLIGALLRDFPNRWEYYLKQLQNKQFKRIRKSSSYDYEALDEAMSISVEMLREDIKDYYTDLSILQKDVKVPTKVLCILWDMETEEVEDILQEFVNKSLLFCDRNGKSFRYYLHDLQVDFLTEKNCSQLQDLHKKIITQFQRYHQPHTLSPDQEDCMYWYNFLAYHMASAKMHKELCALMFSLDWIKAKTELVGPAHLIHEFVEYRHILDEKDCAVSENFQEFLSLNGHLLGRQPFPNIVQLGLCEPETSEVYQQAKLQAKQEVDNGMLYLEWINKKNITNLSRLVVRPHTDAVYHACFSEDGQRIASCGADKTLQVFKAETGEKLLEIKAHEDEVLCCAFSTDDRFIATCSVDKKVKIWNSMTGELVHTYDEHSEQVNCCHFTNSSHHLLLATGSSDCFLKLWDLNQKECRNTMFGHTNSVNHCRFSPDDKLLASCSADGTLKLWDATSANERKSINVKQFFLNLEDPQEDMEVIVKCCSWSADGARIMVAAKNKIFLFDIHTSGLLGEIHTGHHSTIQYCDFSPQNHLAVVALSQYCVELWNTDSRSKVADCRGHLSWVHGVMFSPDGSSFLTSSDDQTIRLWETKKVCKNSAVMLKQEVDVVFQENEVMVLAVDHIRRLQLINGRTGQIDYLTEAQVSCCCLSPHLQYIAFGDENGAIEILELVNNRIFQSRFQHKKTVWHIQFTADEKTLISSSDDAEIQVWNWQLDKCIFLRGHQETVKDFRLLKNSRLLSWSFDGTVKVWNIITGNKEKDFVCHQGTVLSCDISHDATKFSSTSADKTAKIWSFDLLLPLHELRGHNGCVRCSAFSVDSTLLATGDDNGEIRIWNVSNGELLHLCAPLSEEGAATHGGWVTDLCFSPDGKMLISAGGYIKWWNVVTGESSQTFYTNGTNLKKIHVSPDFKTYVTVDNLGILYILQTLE
The test is classed as functional.

Another test deals with T2, Protein RecA (Mycobacterium tuberculosis, UniProt P9WHJ3).
T2 sequence (P9WHJ3 whole entry): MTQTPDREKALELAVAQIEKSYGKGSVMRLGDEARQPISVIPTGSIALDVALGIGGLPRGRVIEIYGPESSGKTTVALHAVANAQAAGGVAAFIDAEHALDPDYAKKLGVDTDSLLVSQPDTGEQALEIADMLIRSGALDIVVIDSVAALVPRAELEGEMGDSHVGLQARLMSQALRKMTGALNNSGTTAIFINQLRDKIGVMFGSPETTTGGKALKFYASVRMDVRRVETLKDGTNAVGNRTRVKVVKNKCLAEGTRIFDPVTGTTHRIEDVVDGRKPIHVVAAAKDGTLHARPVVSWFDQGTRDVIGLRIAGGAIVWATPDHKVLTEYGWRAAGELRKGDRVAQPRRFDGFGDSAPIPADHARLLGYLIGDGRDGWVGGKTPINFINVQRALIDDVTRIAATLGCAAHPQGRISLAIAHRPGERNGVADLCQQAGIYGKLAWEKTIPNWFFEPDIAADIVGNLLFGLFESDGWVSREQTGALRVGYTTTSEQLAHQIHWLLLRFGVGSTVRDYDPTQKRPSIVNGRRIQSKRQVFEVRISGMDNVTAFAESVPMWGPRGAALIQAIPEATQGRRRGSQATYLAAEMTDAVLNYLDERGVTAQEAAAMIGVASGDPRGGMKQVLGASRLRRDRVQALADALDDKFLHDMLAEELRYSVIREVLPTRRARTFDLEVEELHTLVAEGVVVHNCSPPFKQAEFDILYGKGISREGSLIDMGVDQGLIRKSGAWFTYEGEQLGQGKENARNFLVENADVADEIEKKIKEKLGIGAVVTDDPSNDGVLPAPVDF
Put plainly: Fluorescence Cell-Free Homogeneous Dose Retest to Identify Inhibitors of RecA-Intein Splicing Activity. [Related pubchem assays (depositor defined):AID2097, AID2223, AID489010, AID492950]. The test is classed as functional.

The source made the active and inactive calls.

With `CC(=O)N(C1=C(Cl)C(=O)c2ccccc2C1=O)C1CCCCC1`, the IC50 in test [1] was 3.12 µM (active). Also, at Protein RecA, the concentration for a half-maximal effect (EC50) was 1180 nM (active).

For the molecule `Cc1ccc(NC2=C/C(=N\S(=O)(=O)c3cccs3)c3ccccc3C2=O)c(C)c1`, the IC50 in test [1] was 0.411 µM (active). The EC50 on Protein RecA is 185 nM (active).

`COc1ccc(/C=N/NC(=O)c2nn(-c3ccccc3)c(=O)c3c(N)scc23)cc1`: in test [1], the IC50 was 15.3 µM (active). For the same molecule, the EC50 on Protein RecA is 220 nM (active).
